# Where a name gives a salt, the structure may show the parent alone. Read-outs that look alike come from different tables or passages of the source.
# B1: Neocarzinostatin (protein, UniProt P0A3R9 35-147, looked up)
# Neocarzinostatin: AAPTATVTPSSGLSDGTVVKVAGAGLQAGTAYDVGQCAWVDTGVLACNPADFSSVTADANGSASTSLTVRRSFEGFLFDGTRWGTVDCTTAACQVGLSDAAGNGPEGVAISFN
# modifications: enediyne chromophore
# B2: Pegfilgrastim (protein, UniProt P09919 31-207, looked up)
# Granulocyte …: TPLGPASSLPQSFLLKCLEQVRKIQGDGAALQEKLVSECATYKLCHPEELVLLGHSLGIPWAPLSSCPSQALQLAGCLSQLHSGLFLYQGLLQALEGISPELGPTLDTLQLDVADFATTIWQQMEELGMAPALQPTQGAMPAFASAFQRRAGGVLVASHLQSFLEVSYRVLRHLAQP
# modifications: N-terminal methionine; PEG
# How the values were obtained:
# E. coli 541-15 [1] = type: cell-based
# Experimental: To perform a small-molecule-based biological assay in the MVM^2 platform, four main steps to load the reagents are followed. Step-i involves loading a suspension of the biological species (often with a fluorescent chemical indicator) into the MVM^2 platform so that it is uniformly distributed throughout (see FIG. 6C(i) and FIGS. 11A-D for more details; this step mainly takes ˜3-5 min). In step-ii, small-molecule solutions at C0, 0.1 C0, and 0.01 C0 concentrations are loaded into the high, medium, and low positive main-channels, respectively, which diffuse into the corresponding microchambers through the connected side-channels (see FIG. 6C(ii) and FIGS. 12A-D for more details; this step mainly takes as equal as the small-molecule loading time).
# Resazurin (5 wt %) was also added to the bacterial suspension to allow monitoring of the bacterial cell metabolism through an irreversible resazurin-resorufin enzymatic reduction reaction (i.e., with increasing bacterial growth, the higher resazurin reduction results in greater fluorescent intensity).
# To further confirm these findings based on the bacterial cell metabolism obtained from resazurin reduction, the red fluorescent intensities were correlated with the green fluorescence directly associated with the GFP-labeled bacterial growth in the corresponding microchambers (FIG. 9A and FIG. 9B). […] Moreover, the gold standard broth microdilution technique (measuring the bacterial cell density—OD600—vs. the incubation time) was used to validate the MVM^2 microfluidic device functionality (FIG. 9E).
# Similarly, bacterial cell metabolism and growth using the resazurin reduction assay was probed and changes in the number of GFP-labeled bacteria during the assay was monitored, as shown in FIGS. 29A-B and FIGS. 30A-B, respectively.
# E. coli 541-15 [2] = test: Gold standard broth microdilution test (OD600 growth curves); type: cell-based
# Experimental: Bacteria culture medium, strains, growth, and broth microdilution test. Non-selective Mueller-Hinton (“MET”) culture medium was used for all bacterial culture. In detail, a colony of bacteria pre-cultured on an LB agar plate (Corning, NY) was taken from a freshly streaked plate and suspended into 3 mL of MEI broth, and cultured at 37° C. overnight (˜12 h). The concentration of bacterial suspension was adjusted using a UV-Vis spectrophotometer (NanoDrop, Thermo-Fisher; Wilmington, DE). To do this, the overnight culture medium was diluted by 10-fold serial dilutions in non-selective MEI culture medium to find the appropriate final concentration (1×10^6 CFU/mL) for the antimicrobial susceptibility testing assay.
# The gold standard broth microdilution test was performed by preparing the antibiotic solutions at their final concentrations from a stock solution of each examined antibiotic. A fresh 200 μL volume of each antibiotic solution (prepared in MEI culture medium) was pipetted into each microwell of a 96 MicroWell plate. […] Standardized growth curve analysis was performed using a Bioscreen C automated plate reader (Growth Curves USA, NJ) by measuring OD600. […]
# E. coli LF82 = test: MVM2 antimicrobial R/S profile, Crohn's disease clinical isolate; type: cell-based; details: MVM2 platform, 0.1-100 μg/mL, FIG. 9F
# [3] = cited from earlier work
# E. coli = test: MVM2 antimicrobial R/S profile, bovine mastitis E. coli isolate; type: cell-based; details: MVM2 platform, 0.1-100 μg/mL, FIG. 32
# From the text: Bovine with mastitis disease was also used to test the MVM^2 platform for deciphering their antimicrobial resistant/susceptibility profile. These antibiotics were chosen to investigate the most common and important antibiotics' mechanisms of action, including the disruption of bacterial cell wall and membrane synthesis, binding to RNA/DNA and interrupting nucleic acid replication, and inhibition of protein synthesis by binding to ribosome. FIG. 32 contains the following information: (i) the type of bacteria and tested antibiotic can be found at the left and right sides, respectively; (ii) each row includes 37 squares, as labeled at the top and have been categorized in 4 different categories—first square representing the microchamber as negative control (labeled with “N”), and every next twelve squares as respectively representing low, medium, and high positive ranges of antibiotic concentrations; (iii) the low, medium, and high ranges are included the concentration ranges of 0.1-1, 1-10, and 10-100 μg/mL; (iv) there are three types of squares: dark red, dark pink or light pink. […] The dark pink squares also show the microchambers which antimicrobial susceptibility was monitored at different trials. […]
# [4] = test system: E. coli, S. aureus, S. uberis, and K. pneumoniae; test: MVM2 antimicrobial R/S profile, bovine mastitis clinical isolates; type: cell-based; details: MVM2 platform, FIG. 32
# From the text: Bovine with mastitis disease was also used to test the MVM^2 platform for deciphering their antimicrobial resistant/susceptibility profile. These antibiotics were chosen to investigate the most common and important antibiotics' mechanisms of action, including the disruption of bacterial cell wall and membrane synthesis, binding to RNA/DNA and interrupting nucleic acid replication, and inhibition of protein synthesis by binding to ribosome. FIG. 32 contains the following information: (i) the type of bacteria and tested antibiotic can be found at the left and right sides, respectively; (ii) each row includes 37 squares, as labeled at the top and have been categorized in 4 different categories—first square representing the microchamber as negative control (labeled with “N”), and every next twelve squares as respectively representing low, medium, and high positive ranges of antibiotic concentrations; (iii) the low, medium, and high ranges are included the concentration ranges of 0.1-1, 1-10, and 10-100 μg/mL; (iv) there are three types of squares: dark red, dark pink or light pink. If bacteria is susceptible to a specific antibiotic (e.g., E. coli/cefuroxime pair, see FIG. 32), below MIC (shown by dark pink color), bacteria can survive and grow causing more resazurin reduction (shown by dark red). At concentrations greater than the MIC, the bacterial growth stopped as shown by light pink color. The dark pink squares also show the microchambers which antimicrobial susceptibility was monitored at different trials. […].
# [5] = test system: E. coli LF82, E. faecalis 44, and K. pneumoniae 578; test: MVM2 antimicrobial R/S profile, isolates from ileal mucosa of human patients with Crohn's disease; type: cell-based; details: MVM2 platform, FIG. 9F
# [6] = Table 1, antimicrobial agents/drugs
# [7] = Table 3, antifungal drugs and other molecules
molecule,measurement,setting,value
CC1(C)S[C@@H]2[C@H](NC(=O)[C@H](N)c3ccccc3)C(=O)N2[C@H]1C(=O)O [D-(−)-α-Aminobenzylpenicillin],susceptibility/resistance outcome,"E. coli 541-15 [1]; MVM2 platform, 0.1-100 μg/mL, 4 h",resistance
same,susceptibility/resistance outcome,E. coli 541-15 [2],resistance
same,susceptibility/resistance outcome,E. coli LF82,resistance
same,Molar volume,[3]; [6],239.3 ± 5.0 cm^3
CCC[C@@H]1C[C@@H](C(=O)N[C@@H]([C@H]2O[C@H](SC)[C@H](O)[C@@H](O)[C@H]2O)[C@@H](C)O)N(C)C1 [Lincomycin],susceptibility/resistance outcome,E. coli,resistance
same,Molar volume,[3]; [6],313.2 ± 5.0 cm^3
same,effectiveness among tested antibiotics,[4],not effective
CCn1cc(C(=O)O)c(=O)c2ccc(C)nc21 [Nalidixic acid],effectiveness among tested antibiotics,[4],most effective
CC[C@]1(O)C[C@@H]2CN(CCc3c([nH]c4ccccc34)[C@@](C(=O)OC)(c3cc4c(cc3OC)N(C)[C@H]3[C@@](O)(C(=O)OC)[C@H](OC(C)=O)[C@]5(CC)C=CCN6CC[C@]43[C@@H]65)C2)C1 [Vinblastine Sulfate],Molar volume,"[3]; Table 2, anticancer drugs",590.0 ± 5.0 cm^3
"O=C(CCCCCCC(=O)Nc1ccccc1)NO [Vorinostat (Zolinza), Vorinostat]",Molar volume,"[3]; Table 2, anticancer drugs",224.9 ± 3.0 cm^3
"Cc1nccn1CC1CCc2c(c3ccccc3n2C)C1=O (stereo not drawn) [Zofran (Ondansetron Hydrochloride), Ondansetron Hydrochloride]",Molar volume,"[3]; Table 2, anticancer drugs",230.1 ± 7.0 cm^3
O=C(O)CN(CC(=O)O)Cc1cc2c(cc1O)Oc1cc(O)c(CN(CC(=O)O)CC(=O)O)cc1C21OC(=O)c2ccccc21 [calcein],Molar volume,[3]; fluorescent dyes,356±5 cm^3/mole
CO/N=C(\C(=O)N[C@@H]1C(=O)N2C(C(=O)O)=C(COC(N)=O)CS[C@H]12)c1ccco1 [cefuroxime],susceptibility/resistance outcome,E. coli,susceptible
same,effectiveness among tested antibiotics,[4],most effective
O=c1ccc2[n+]([O-])c3ccc(O)cc3oc-2c1 [resazurin],Molar volume,[3]; fluorescent dyes,145±7 cm^3/mole
CC1(C)S[C@@H]2[C@H](NC(=O)C(C(=O)O)c3ccccc3)C(=O)N2[C@H]1C(=O)O (stereo partly drawn) [α-Carboxybenzylpenicillin],Molar volume,[3]; [6],246.1 ± 5.0 cm^3
Aculeacin A,Molar volume,[3]; [6],754.1 ± 5.0 cm^3
Alemtuzumab,Molar volume,"[3]; Table 2, anticancer drugs",165.7 ± 7.0 cm^3
Antimycin,Molar volume,[3]; [7],431.0 ± 5.0 cm^3
Bleomycin,Molar volume,[3]; [7],887.0 ± 5.0 cm^3
Cinnamycin,Molar volume,[3]; [7],1281.0 ± 7.0 cm^3
Colistin,Molar volume,[3]; [6],916.9 ± 5.0 cm^3
Epoetin Alfa,Molar volume,"[3]; Table 2, anticancer drugs",665.6 ± 5.0 cm^3
Fengycin [Fengycin (Plipastatin)],Molar volume,[3]; [7],1105.9 ± 5.0 cm^3
Gentamicin,effectiveness among tested antibiotics,[5],most effective
same,susceptibility/resistance outcome,E. coli 541-15 [1],susceptible
same,MIC,"E. coli 541-15 [1]; MVM2 platform, 4 h at 37° C., n=5",2.82 ± 0.68 µg/mL
same,MIC,E. coli 541-15 [2]; n=5,3 ± 2 µg/mL
same,susceptibility/resistance outcome,E. coli LF82,susceptible
same,effectiveness among tested antibiotics,[4],most effective
Gilteritinib Fumarate [Xospata (Gilteritinib Fumarate)],Molar volume,"[3]; Table 2, anticancer drugs",444.9 ± 3.0 cm^3
Ikarugamycin,Molar volume,[3]; [6],390.4 ± 5.0 cm^3
Ivermectin Bla,Molar volume,[3]; [6],708.3 ± 5.0 cm^3
Kirromycin [Kirromycin (mocimycin)],Molar volume,[3]; [6],622.6 ± 3.0 cm^3
"Lactoferricin B (SITCVRRAFALECIRAIAEKKADAV; Lactoferricin-B; UniProt P24627 52-76, looked up, fragment) [Lactoferricin B (metallibure)]",Molar volume,[3]; [6],184.7 ± 3.0 cm^3
Lysobactin,Molar volume,[3]; [6],895.9 ± 7.0 cm^3
Magainin I,Molar volume,[3]; [6],1900.4 ± 3.0 cm^3
Mithramycin A [Mithramycin A (Plicamycin)],Molar volume,[3]; [6],728.3 ± 5.0 cm^3
Neomycin,Molar volume,[3]; [6],380.3 ± 5.0 cm^3
Phleomycin [Phleomycin (UNII:BN3E7WJN9X)],Molar volume,[3]; [6],724.4 ± 7.0 cm^3
Polymyxin B,Molar volume,[3]; [6],941.8 ± 5.0 cm^3
Reveromycin A [Reveromycin A (MFCD00912537)],Molar volume,[3]; [6],542.2 ± 5.0 cm^3
gramicidin s,Molar volume,[3]; [6],919.5 ± 5.0 cm^3
B1,Molar volume,[3]; [6],434.9 ± 5.0 cm^3
B2,Molar volume,"[3]; Table 2, anticancer drugs",252.4 ± 3.0 cm^3
